Holding throughout (assay): inhibition of tumour cell growth, NCI panel, 48 h
For assay [1], the system named is NCI-H226.
In assay [2] the test system is MDA-MB-231.
Assay [3] has as its system HOP-92.
In assay [4] the test system is U-251.
Assay [5] has as its system TK-10.
Assay [6] relates to A549.
Assay [7] has as its system T47D.
Assay [8] concerns MDA-MB-435.
Assay [9] has as its system SNB-19.
The subject of assay [10] is HOP-62.
The subject of assay [11] is COLO 205.
Assay [12] relates to HT-29.
In assay [13] the test system is DU-145.
The test system of assay [14] is UACC-62.
For assay [15], the system named is MCF7.
The subject of assay [16] is OVCAR-5.
Assay [17] has as its system SK-OV-3.
The subject of assay [18] is NCI-H522.
For assay [19], the system named is K562.
The test system of assay [20] is Hs-578T.

SMILES strings stand for the structures.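 These data come from cells grown in 96-well plates and exposed to compound for 48 hours at five concentrations. GI50: concentration for 50% inhibition of growth.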 Calls of active or inactive are those of the source. No stated cut-off is given here; in the data, active = GI50 up to about 1.1 µM and inactive = higher.

This note sets out measurements from ChEMBL document CHEMBL1201862, “PubChem BioAssay data set” (2004).

For `CCCNC(=S)N/C=C1/C(=O)C=C(C)OC1=O`, the GI50 in assay [1] was > 100 µM (inactive); in [2], > 100 µM (inactive); in [3] it was > 100 µM (inactive); in assay [4], > 100 µM (inactive); in [5], 26.7 µM (inactive); in assay [6] it was > 100 µM (inactive). Besides, the GI50 in [7], in assay [8], in [9], in [10], in assay [11] and in assay [12] was > 100 µM (inactive) in each case. Moreover, the GI50 in assay [13], in assay [14], in assay [15], in [16] and in assay [17] was > 100 µM (inactive) in each case.
For `O=C(Cc1nc2ccc(C(=O)c3ccccc3)cc2nc1O)C(=O)Nc1ccccc1[N+](=O)[O-]`, the GI50 is 13.8 µM (inactive) in assay [1]; 38.1 µM (inactive) in [2]; 65.9 µM (inactive) in assay [3]; 88.5 µM (inactive) in assay [4]; 34.4 µM (inactive) in assay [18]; 98.9 µM (inactive) in [5]. Further, the GI50 in [6] is > 100 µM (inactive); in [7], 54.3 µM (inactive); in [8] it was 38.9 µM (inactive); in assay [19], 30.1 µM (inactive); in assay [12], 47.1 µM (inactive); in assay [20], 47.8 µM (inactive). The GI50 in assay [14] is 55.3 µM (inactive); in assay [15], 50 µM (inactive); in assay [16] it was > 100 µM (inactive); in assay [17] it was > 100 µM (inactive).
For `CC1=C(/C=C/C(C)=C/C=C/C(C)=C/CO)C(C)(C)CCC1` [RETINOL], the GI50 in assay [1] was 20.7 µM (inactive); in assay [2], 29 µM (inactive); in [4], 21.2 µM (inactive); in assay [18] it was 25.5 µM (inactive); in [6], 19.1 µM (inactive); in assay [7], 14.5 µM (inactive). Besides, the GI50 was 22.1 µM (inactive) in assay [8]; 26.5 µM (inactive) in [19]; 22.1 µM (inactive) in [9]; 22.1 µM (inactive) in assay [10]; 19.1 µM (inactive) in [11]; 27.2 µM (inactive) in assay [12]. The GI50 in [13] is 38.3 µM (inactive); in assay [14] it was 19.5 µM (inactive); in [16] it was 24.9 µM (inactive); in assay [17], 35.2 µM (inactive).
Take `CC(=O)Nc1ccc2nc(-c3cccc(F)c3)cc(O)c2c1`: the GI50 was 14.4 µM (inactive) in [2]; 2.67 µM (inactive) in assay [4]; 1.95 µM (inactive) in assay [18]; > 100 µM (inactive) in [5]; 59.4 µM (inactive) in assay [6]; > 100 µM (inactive) in assay [7]. The GI50 was 1.6 µM (inactive) in [8]; 2.13 µM (inactive) in [19]; 4.93 µM (inactive) in assay [9]; 3.15 µM (inactive) in assay [10]; 11.2 µM (inactive) in [11]; 5.28 µM (inactive) in [12]. Also, the GI50 was 3.74 µM (inactive) in assay [20]; 3.01 µM (inactive) in assay [14]; 5.5 µM (inactive) in assay [15]; > 52.8 µM (inactive) in assay [16]; 5.09 µM (inactive) in assay [17].
For `COc1ccccc1NCc1cccc2c(=O)c3ccc(Cl)cc3oc12`, the GI50 in assay [1] was > 100 µM (inactive); in assay [2], > 100 µM (inactive); in [3] it was 25.7 µM (inactive); in assay [4], 33.5 µM (inactive); in assay [18], > 100 µM (inactive); in assay [5], > 100 µM (inactive). Also, the GI50 in [6] is 78.3 µM (inactive); in assay [7], > 100 µM (inactive); in assay [8] it was 65 µM (inactive); in assay [19], 47.1 µM (inactive); in [9], 92.7 µM (inactive); in assay [10], > 100 µM (inactive). The GI50 in assay [11] is 56.9 µM (inactive); in assay [12], 46.6 µM (inactive); in assay [14], > 100 µM (inactive); in [15], 28.1 µM (inactive); in assay [16], > 100 µM (inactive); in assay [17] it was > 100 µM (inactive).
Regarding `COc1ccc(NC2Oc3cc4c(cc3C(c3cc(OC)c(OC)c(OC)c3)C2C)OCO4)cc1` (centres undefined), the GI50 in assay [1] is 0.552 µM (active); in [2], 0.881 µM (active); in assay [3], 0.92 µM (active); in [4] it was 0.379 µM (active); in [18], 0.311 µM (active); in [5], 5.33 µM (inactive). The GI50 in assay [6] was 0.685 µM (active); in [8], 0.0991 µM (active); in assay [19], 0.223 µM (active); in assay [9], 0.607 µM (active); in assay [10], 0.294 µM (active); in assay [11], 0.386 µM (active). The GI50 in assay [12] is 0.365 µM (active); in assay [20] it was 0.398 µM (active); in [13], 0.574 µM (active); in [14], 0.597 µM (active); in assay [15], 0.394 µM (active); in assay [16], 2.17 µM (inactive). Moreover, the GI50 in assay [17] was 0.948 µM (active).
Regarding `COC(=O)/C=C/C1(O)C=CC(=O)C=C1`, the GI50 in assay [1] was 19.6 µM (inactive); in [2], 2.95 µM (inactive); in assay [3], 3.66 µM (inactive); in [4], 3.67 µM (inactive); in assay [18] it was 0.338 µM (active); in assay [5], 5.37 µM (inactive). Also, the GI50 is 8.3 µM (inactive) in [6]; 2.67 µM (inactive) in [7]; 5.13 µM (inactive) in assay [8]; 3.15 µM (inactive) in assay [19]; 3.83 µM (inactive) in assay [9]; 4.37 µM (inactive) in assay [10]. The GI50 in [11] was 3.4 µM (inactive); in assay [12], 2.51 µM (inactive); in assay [13] it was 2.59 µM (inactive); in [14], 3 µM (inactive); in [15], 2.87 µM (inactive); in assay [16], 5.78 µM (inactive). Moreover, in assay [17], the GI50 was 17 µM (inactive).
On to `COC1(OC)CC(CO)(CNc2nc(N)nc(Cl)c2C=O)C1`, for which the GI50 in assay [1] is 93.3 µM (inactive); in assay [2], 20.8 µM (inactive); in assay [3] it was 14.6 µM (inactive); in [4], 34.6 µM (inactive); in assay [18] it was 1.99 µM (inactive); in [5] it was > 100 µM (inactive). The GI50 in assay [6] was 59 µM (inactive); in assay [8], 25.8 µM (inactive); in assay [19] it was 5.74 µM (inactive); in [9], 43.8 µM (inactive); in assay [10], 42.5 µM (inactive); in [11] it was > 100 µM (inactive). Further, the GI50 in assay [12] is 55.6 µM (inactive); in assay [20], 39.8 µM (inactive); in assay [13] it was 95.9 µM (inactive); in assay [15], 57.7 µM (inactive); in assay [16], > 100 µM (inactive).
